Key:
[1] = molecular target: Human 20S immunoproteasome β1i (Homo sapiens, UniProt P28065); assay: 20S immunoproteasome inhibition, β1i chymotrypsin-like activity (Ac-Pro-Ala-Leu-AMC)
Description: (§3) Human 20S immunoproteasome was incubated at 30 °C at a final concentration of 0.004 mg/mL with test compound present at variable concentrations. The reaction buffer consisted of 50 mM Tris HCl, pH 7.4, 10 mM NaCl, 25 mM KCl, 1 mM MgCl2, 0.03% SDS. Product release from substrate hydrolysis (50 µM) was monitored continuously over a period of 10 min.

[2] = molecular target: Human 20S immunoproteasome β5i (Homo sapiens, UniProt P28062); assay: 20S immunoproteasome inhibition, β5i chymotrypsin-like activity (Suc-Leu-Leu-Val-Tyr-AMC); details: for inhibition at 100 µM: read-out: inhibition of one or two ChT-L activities
Description: as §3

[3] = molecular target: β5c subunit of constitutive proteasome; set-up: method as in PMID 24561716, PMID 24946214; details: ChT-L activity of constitutive proteasome; read-out: Ki against β5c subunit; cited from earlier work
[4] = molecular target: T1, Human 20S immunoproteasome β2i (Homo sapiens, UniProt P40306); assay: 20S immunoproteasome inhibition, β2i trypsin-like activity (Boc-Leu-Arg-Arg-AMC); assay type: biochemical; details: 100 µM inhibitor, preliminary screening
T1 construct: Human 20S immunoproteasome, isolated from human spleen; purchased Enzo Life Science; host or cells: human spleen (tissue-isolated)
Description: Human 20S immunoproteasome, isolated from human spleen, was purchased from Enzo Life Science Supplier. The three distinct proteolytic activities of the 20S immunoproteasome were measured by monitoring the hydrolysis of the peptidyl 7-amino-4-methyl coumarin substrates Suc-Leu-Leu-Val-Tyr-AMC (Bachem), Boc-Leu-Arg-Arg-AMC (Bachem) and Ac-Pro-Ala-Leu-AMC (Biomol GmbH) for β5i, β2i and β1i activities of immunoproteasome, respectively. […] Inhibitor solutions were prepared from stocks in DMSO. Each independent assay was performed twice in duplicate in 96-well-plates in a total volume of 200 µL. Fluorescence of the product AMC of the substrate hydrolyses was measured using an Infinite 200 PRO microplate reader (Tecan, Männedorf, Switzerland) at 30 °C with a 380 nm excitation filter and a 460 nm emission filter.
Human 20S immunoproteasome was incubated at 30 °C at a final concentration of 0.004 mg/mL with test compound present at variable concentrations. The reaction buffer consisted of 50 mM Tris HCl, pH 7.4, 50 mM NaCl, 0.5 mM EDTA III, 0.03% SDS. Product release from substrate hydrolysis (50 µM) was monitored continuously over a period of 10 min.

[5] = tested on: MM.1R cells; assay: Cytotoxicity by MTT assay; assay type: cell-based; details: Homo sapiens, 24 h, dexamethasone-resistant cells, read-out: EC50 against MM.1R cells
Description: To test the efficacy of 5 and 6 a cell viability assay was performed. Human multiple myeloma cells (MM.1R; ATCC® CRL-2975™) resistant to dexamethasone were purchased by LGC Standards (Milan, Italy) and cultured under standard conditions (37 °C, 5% CO2) with standard RPMI 1640 medium added with L-glutamine, 10% foetal bovine serum, and 1% antibiotic mixture (penicillin/streptomycin) in sterile flasks. Cells were grown for a week before the assay. Compounds 5–6 were tested at different doses (1–10-20–40-80–100 µM) in a 96 well plate for 24 h to determine the cytotoxic effect. […] At the end of the 5 h, the medium was removed and the insoluble formazan crystals were dissolved with 200 µl/well of dimethyl sulphoxide (DMSO), and the absorbance was read at 540 and 620 nm. The difference between the two absorbance values was used to calculate mean for each replicate and further assess cytotoxicity. […] Results were expressed as % of vitality and reported as means and SEM.
To test the efficacy of compounds 5–6 in a cell system, we used dexamethasone-resistant human multiple myeloma cells (MM.1R), which are less responsive to chemotherapy, and are representative of patients in the later stages of the disease, as previously described. […] MM.1R cell survival was determined by the tetrazolium dye MTT assay and untreated cells were used as reference and assumed as the 100% of vital cells (Figure 2).

[6] = tested on: ubiquitin in MM.1R cells; assay: Ubiquitin accumulation by western blot; assay type: cell-based, human; details: 24 h, versus ctrl
Description: (§1) To test the inhibitory effect on proteasome activity, ubiquitin, cyclins, CDK, NF-kB and pNF-kB were assessed by western blot. […] After 24 h, cells were collected and protein extracted for analysis. Protein extraction and western blot analysis were performed as previously described.
(§2) Briefly, a total of 15 µg of proteins were loaded in each lane and specific antibodies were used to detect ubiquitin (Abcam, Cambridge, UK), cyclin A, cyclin B, cyclin D1, CDK1, CDK4/6, NF-kB, pNF-kB, PARP, and Caspase-3 (Cell Signaling, Danvers, MA, United States). Beta actin (Cell Signaling), was used on stripped blots as loading control. The images have been acquired using a dedicated software and densitometric data were expressed as integrated intensity and reported as means and SEM.
To test the efficacy of these compounds in inhibiting ubiquitinated protein degradation, a western blot analysis of ubiquitin was performed (Figure 3). In fact, considering that proteasome inhibition leads the cells to accumulate ubiquitinated protein into the cytoplasm, we decided to assess the changes in levels of total ubiquitinated proteins indirectly, by detecting changes in total ubiquitin levels, by western blot analysis. […] It is worth noting that these changes were dose-dependent, this adding an additional level of confidence in our experimental approach.

[7] = tested on: cyclin A in MM.1R cells; assay: Cyclin A level by western blot; assay type: cell-based, human; details: 24 h, 15 and 20 µM
Description: as §1, §2

[8] = tested on: cyclin D1 in MM.1R cells; assay: Cyclin D1 level by western blot; assay type: cell-based, human; details: 24 h, 20 µM
Description: as §1, §2

[9] = tested on: pNF-kB in MM.1R cells; assay: pNF-kB level by western blot; assay type: cell-based, human; details: 24 h
Description: as §1, §2

[10] = tested on: PARP in MM.1R cells; assay: PARP expression by western blot; assay type: cell-based, human; details: 24 h
Description: as §1, §2

[11] = tested on: Caspase-3 in MM.1R cells; assay: Caspase-3 expression by western blot; assay type: cell-based, human; details: 24 h
Description: as §1, §2

[12] = tested on: cyclin B in MM.1R cells; assay: Cyclin B level by western blot; assay type: cell-based, human; details: 24 h, 20 µM
Description: as §1, §2

[13] = tested on: CDK1 in MM.1R cells; assay: CDK1 level by western blot; assay type: cell-based, human; details: 24 h, p < .05
Description: as §1, §2

[14] = tested on: CDK4/6 in MM.1R cells; assay: CDK4/6 level by western blot; assay type: cell-based, human; details: 24 h, p < .0005
Description: as §1, §2

[15] = tested on: NF-kB in MM.1R cells; assay: NF-kB level by western blot; assay type: cell-based, human; details: 24 h
Description: as §1, §2

CC(C)CCNC(=O)Cn1ccc2ncccc2c1=O [Compound 1]
Ki [1]: 4.9 µM | Ki [2]: 4.39 µM

CC(C)CCNC(=O)Cn1ccc2c(c1=O)CCCN2 [Compound 3]
Ki [3]: 10.5 µM

CC(C)CCNC(=O)Cn1cc(Br)c2ncccc2c1=O [Compound 5]
inhibition at 100 µM [4]: 19% | EC50 [5]: 21.2 µM | ubiquitin accumulation ([6]; all tested concentrations): no significant increase | cyclin A level [7]: No trend of reduction | cyclin D1 level [8]: able to reduce | pNF-kB level [9]: paradoxical increase | PARP expression [10]: No significant difference | Caspase-3 expression [11]: No significant difference | Ki [3]: 0.56 µM | inhibition at 100 µM ([1]; read-out: % of inhibition at 100 µM β1i): 36% | Ki [2]: 6.04 ± 0.29 µM | inhibition at 100 µM [2]: > 70%

CC(C)CCNC(=O)Cn1ccc2ccc(Br)cc2c1=O [Compound 6]
inhibition at 100 µM [4]: 24% | EC50 [5]: 17.8 µM | ubiquitin accumulation ([6]; 20 µM): significant increase | cyclin A level [7]: very significant (p < .005) reduction | cyclin B level [12]: consistent reduction | cyclin D1 level [8]: consistent reduction | CDK-1 level [13]: changed | CDK4/6 level [14]: changed | NF-kB level [15]: dose-dependent increase | pNF-kB level [9]: trend of reduction | PARP expression [10]: No significant difference | Caspase-3 expression [11]: No significant difference | Ki [3]: 2.34 µM | Ki [1]: 4.9 ± 0.04 µM | Ki [2]: 4.39 ± 0.18 µM | inhibition at 100 µM [2]: > 70%

Reference: PMC6691773, “Non-covalent immunoproteasome inhibitors induce cell cycle arrest in multiple myeloma MM.1R cells” (Journal of Enzyme Inhibition and Medicinal Chemistry, 2019)
